According to patent publication US8957093B2, “N-biphenylmethylindole modulators of PPARG” (The Scripps Research Institute, priority 2011, dated 2015):
Where two headings read alike, the source gives them in different places.

Columns and labels:
[1] = target: Gal-4-PPAR (human PPAR LBD fused to GAL4 DNA-binding domain) (Homo sapiens (Human), UniProt P37231); assay: GAL4-PPARG LBD / UAS-luciferase transactivation assay in HEK 293T cells; format: cell-based
GST-PPARG-LBD = GST-PPARG-LBD (Homo sapiens (Human), UniProt P37231); assay: Lanthascreen PPARG competitive binding assay (Invitrogen, TR-FRET); details: NA = not active, inc = incomplete curve; for IC50: read-out: IC50 (nM) Lantha
Outline: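 Values are fold change in 520 nm/490 nm FRET ratio relative to a 2% DMSO no-ligand control, excitation 340 nm. Compound dilutions starting at 10 μM competed against 5 nM Fluormone Pan-PPAR Green for GST-PPARG-LBD bound by 5 nM Tb anti-GST antibody. Incubation 2 h in the dark in assay buffer C, triplicate wells.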

[2] = GAL4 transactivation, HEK 293T cells; NA = not active; read-out: EC50 (nM) GAL4
[3] = HEK-293T, 18 h; read-out: % transactivation at 10 μM (GAL4)
[4] = Lanthascreen competitive binding
[5] = HEK-293T, 18 h, read-out: % transactivation at 10 μM (GAL4)
[6] = Lanthascreen PPARG competitive binding

Sequence of GST-PPARG-LBD (P37231 238-503): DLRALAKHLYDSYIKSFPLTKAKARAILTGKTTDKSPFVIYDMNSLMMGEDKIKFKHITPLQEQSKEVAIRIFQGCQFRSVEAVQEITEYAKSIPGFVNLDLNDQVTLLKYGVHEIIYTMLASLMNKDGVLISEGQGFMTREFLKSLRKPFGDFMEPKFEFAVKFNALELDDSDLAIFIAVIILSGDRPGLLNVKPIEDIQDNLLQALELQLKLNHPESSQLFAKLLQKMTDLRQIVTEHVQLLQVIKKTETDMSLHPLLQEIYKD
Sequence of Gal-4-PPAR (human PPAR LBD fused to GAL4 DNA-binding domain) (P37231 238-503): as above

Row | SMILES | EC50 [1, 2] [nM] | activation at 10 µM [1, 3] [%] | IC50 (GST-PPARG-LBD; [4]) [nM] | other results
1 | Cc1c(C)n(Cc2ccc(-c3ccccc3C(=O)O)cc2)c2ccc(C(=O)N[C@@H](C)c3ccccn3)cc12 [Example 144, (S)-4′-((2,3-dimethyl-5-((1-(pyridin-2-yl)ethyl)carbamoyl)-1H-indol-1-yl)methyl)-[1,1′-biphenyl]-2-carboxylic acid] | 13 | 25 | 2 | 
2 | Cc1c(C)n(Cc2ccc(-c3ccccc3C(=O)O)cc2)c2ccc(C(=O)N[C@H](C)c3cccc(Cl)c3Cl)cc12 [Example 171, (R)-4′-((5-((1-(2,3-dichlorophenyl)ethyl)carbamoyl)-2,3-dimethyl-1H-indol-1-yl)methyl)-[1,1′-biphenyl]-2-carboxylic acid] | 388 |  | 5 | activation at 10 µM [1, 5]: 10%
3 | Cc1c(C)n(Cc2ccc(-c3ccccc3C(=O)O)cc2)c2ccc(C(=O)N[C@H](C)c3c(Cl)cccc3Cl)cc12 [Example 141, (R)-4′-((5-((1-(2,6-dichlorophenyl)ethyl)carbamoyl)-2,3-dimethyl-1H-indol-1-yl)methyl)-[1,1′-biphenyl]-2-carboxylic acid] | 529 | 20 | 30 | 
4 | Cc1c(C)n(Cc2ccc(-c3ccccc3C(=O)O)cc2)c2ccc(C(=O)NC(C)c3cncc(C4CC4)c3)cc12 (stereo not shown) [Example 259, 4′-((5-(1-(5-cyclopropylpyridin-3-yl)ethylcarbamoyl)-2,3-dimethyl-1H-indol-1-yl)methyl)biphenyl-2-carboxylic acid] | 1480 | 15 | 19 | 
5 | Cc1c(C)n(Cc2ccc(-c3ccccc3C(=O)O)cc2)c2ccc(C(=O)N[C@H](C)c3ccncc3)cc12 [Example 169, (R)-4′-((2,3-dimethyl-5-((1-(pyridin-4-yl)ethyl)carbamoyl)-1H-indol-1-yl)methyl)-[1,1′-biphenyl]-2-carboxylic acid] | 608 | 20 | 11 | 
6 | Cc1c(C)n(Cc2ccc(-c3ccccc3C(=O)O)cc2)c2ccc(C(=O)N[C@@H](C)c3ccc(C(F)(F)F)c(F)c3)cc12 [Example 228, (S)-4′-((5-((1-(3-fluoro-4-(trifluoromethyl)phenyl)ethyl)carbamoyl)-2,3-dimethyl-1H-indol-1-yl)methyl)-[1,1′-biphenyl]-2-carboxylic acid] | 1060 | 15 | 53 | 
7 | Cc1c(C)n(Cc2ccc(-c3ccccc3C(=O)NO)cc2)c2ccc(C(=O)N[C@@H](C)c3cccc(C(C)C)c3)cc12 [Example 313] |  | 4 |  | EC50 [1]: 242 nM; IC50 (GST-PPARG-LBD; [6]): 77 nM
8 | Cc1c(C)n(Cc2ccc(-c3ccccc3-c3nn[nH]n3)cc2)c2ccc(C(=O)N[C@@H](C)c3cccc(C(C)C)c3)cc12 [Example 243, (S)-1-((2′-(2H-tetrazol-5-yl)-[1,1′-biphenyl]-4-yl)methyl)-N-(1-(3-isopropylphenyl)ethyl)-2,3-dimethyl-1H-indole-5-carboxamide] |  | 10 | 22 | EC50 [1]: 1600 nM
9 | Cc1c(C)n(Cc2ccc(-c3ccccc3C(=O)O)cc2)c2ccc(C(=O)N[C@@H](C)c3ccc4c(c3)CCO4)cc12 [Example 218, (S)-4′-((5-((1-(2,3-dihydrobenzofuran-5-yl)ethyl)carbamoyl)-2,3-dimethyl-1H-indol-1-yl)methyl)-[1,1′-biphenyl]-2-carboxylic acid] | 2550 | 45 | 223 | 
10 | COc1ccc(F)cc1[C@@H](C)NC(=O)c1ccc2c(c1)c(C)c(C)n2Cc1ccc(-c2ccccc2C(=O)O)cc1 [Example 205, (R)-4′-((5-((1-(5-fluoro-2-methoxyphenyl)ethyl)carbamoyl)-2,3-dimethyl-1H-indol-1-yl)methyl)-[1,1′-biphenyl]-2-carboxylic acid] | 637 | 20 | 5 | 
11 | Cc1c(C)n(Cc2ccc(-c3ccccc3C(=O)O)cc2)c2ccc(C(=O)N[C@@H](C)c3c(Cl)cccc3Cl)cc12 [Example 142, (S)-4′-((5-((1-(2,6-dichlorophenyl)ethyl)carbamoyl)-2,3-dimethyl-1H-indol-1-yl)methyl)-[1,1′-biphenyl]-2-carboxylic acid] | 6060 | 15 | 51 | 
12 | Cc1c(C)n(Cc2ccc(-c3ccccc3C(=O)O)cc2)c2ccc(C(=O)N[C@@H](C)c3cccc(F)c3Cl)cc12 [Example 170, (S)-4′-((5-((1-(2-chloro-3-fluorophenyl)ethyl)carbamoyl)-2,3-dimethyl-1H-indol-1-yl)methyl)-[1,1′-biphenyl]-2-carboxylic acid] | 114 |  | 4 | activation at 10 µM [1, 5]: 50%
13 | Cc1c(C)n(Cc2ccc(-c3ccccc3C(=O)O)cc2)c2ccc(C(=O)N[C@@H](C)c3cc(C(F)(F)F)ccc3C(F)(F)F)cc12 [Example 172, (S)-4′-((5-((1-(2,5-bis(trifluoromethyl)phenyl)ethyl)carbamoyl)-2,3-dimethyl-1H-indol-1-yl)methyl)-[1,1′-biphenyl]-2-carboxylic acid] | 106 | 8 | 9 | 
14 | Cc1c(C)n(Cc2ccc(-c3ccccc3C(=O)O)cc2)c2ccc(C(=O)N[C@@H](C)c3c(F)ccc(F)c3F)cc12 [Example 236, (S)-4′-((2,3-dimethyl-5-((1-(2,3,6-trifluorophenyl)ethyl)carbamoyl)-1H-indol-1-yl)methyl)-[1,1′-biphenyl]-2-carboxylic acid] | 293 |  | 17 | activation at 10 µM [1, 5]: 20%
15 | Cc1c(C)n(Cc2ccc(-c3ccccc3C(=O)O)cc2)c2ccc(C(=O)N[C@@H](C)c3ccc(Cl)c(Cl)c3)cc12 [Example 220, (S)-4′-((5-((1-(3,4-dichlorophenyl)ethyl)carbamoyl)-2,3-dimethyl-1H-indol-1-yl)methyl)-[1,1′-biphenyl]-2-carboxylic acid] | 142 | 30 | 10 | 
16 | CCC(NC(=O)c1ccc2c(c1)c(C)c(C)n2Cc1ccccc1-c1cccc(C(=O)O)c1)c1ccccc1 (stereo not shown) [Example 126, 2′-((2,3-Dimethyl-5-((1-phenylpropyl)carbamoyl)-1H-indol-1-yl)methyl)-[1,1′-biphenyl]-3-carboxylic acid] |  |  | 99 | 
17 | C[C@H](NC(=O)c1ccc2c(ccn2Cc2ccc(-c3ccccc3O)cc2)c1)c1ccc([N+](=O)[O-])cc1 [Example 40, (S)-1-((2′-Hydroxy-[1,1′-biphenyl]-4-yl)methyl)-N-(1-(4-nitrophenyl)ethyl)-1H-indole-5-carboxamide] |  |  | > 1000 | 
18 | Cc1c(C)n(Cc2ccc(-c3ccccc3C#N)cc2)c2ccc(C(=O)N[C@@H](C)c3cccc(C(C)(C)C)c3)cc12 [Example 185, (S)—N-(1-(3-(tert-butyl)phenyl)ethyl)-1-((2′-cyano-[1,1′-biphenyl]-4-yl)methyl)-2,3-dimethyl-1H-indole-5-carboxamide] |  |  |  | IC50 (nM) Lantha (GST-PPARG-LBD; [4]): inc
19 | C[C@H](NC(=O)c1ccc2c(ccn2Cc2ccc(-c3cccc(Cl)c3)cc2)c1)c1ccc([N+](=O)[O-])cc1 [Example 58, (S)-1-((3′-Chloro-[1,1′-biphenyl]-4-yl)methyl)-N-(1-(4-nitrophenyl)ethyl)-1H-indole-5-carboxamide] |  |  | > 1000 | 
20 | Cc1c(C)n(Cc2ccc(-c3ccccc3C#N)cc2)c2ccc(C(=O)N[C@@H](C)c3ccc(Cl)c(Cl)c3)cc12 [Example 290, (S)-1-((2′-cyano-[1,1′-biphenyl]-4-yl)methyl)-N-(1-(3,4-dichlorophenyl)ethyl)-2,3-dimethyl-1H-indole-5-carboxamide] |  |  |  | IC50 (nM) Lantha (GST-PPARG-LBD; [6]): inc
21 | Cc1c(C)n(Cc2ccc(-c3ccccc3C(=O)O)cc2)c2ccc(C(=O)N[C@@H](C)c3cc(Cl)ccn3)cc12 [Example 265, (S)-4′-((5-((1-(4-chloropyridin-2-yl)ethyl)carbamoyl)-2,3-dimethyl-1H-indol-1-yl)methyl)-[1,1′-biphenyl]-2-carboxylic acid] |  |  | 4 | 
22 | Cc1c(C)n(Cc2ccc(-c3ccccc3C#N)cc2)c2ccc(C(=O)N[C@@H](C)c3ccc(C(F)(F)F)cc3)cc12 [Example 277, (S)-1-((2′-cyano-[1,1′-biphenyl]-4-yl)methyl)-2,3-dimethyl-N-(1-(4-(trifluoromethyl)phenyl)ethyl)-1H-indole-5-carboxamide] |  |  |  | IC50 (nM) Lantha (GST-PPARG-LBD; [6]): inc
23 | Cc1c(C)n(Cc2ccc(-c3ccccc3C(=O)NC[C@@H](O)C(=O)N(C)C)cc2)c2ccc(C(=O)N[C@@H](C)c3cccc(C(C)C)c3)cc12 [Example 309, 1-((2′-(((R)-3-(Dimethylamino)-2-hydroxy-3-oxopropyl)carbamoyl)-[1,1′-biphenyl]-4-yl)methyl)-N-((S)-1-(3-isopropylphenyl)ethyl)-2,3-dimethyl-1H-indole-5-carboxamide] |  |  |  | IC50 (GST-PPARG-LBD; [6]): > 1000 nM
24 | COc1cc(CNC(=O)c2ccc3c(c2)c(C)c(C)n3Cc2ccc(-c3ccccc3C(=O)O)cc2)cc(OC)c1 [compound 22, 4′-((5-(3,5-Dimethoxybenzylcarbamoyl)-2,3-dimethyl-1H-indol-1-yl)methyl)biphenyl-2-carboxylic acid] |  |  | 10 | 
25 | Cc1c(C)n(Cc2ccc(-c3ccccc3C(=O)O)cc2)c2ccc(C(=O)N[C@H](C)c3c(F)cncc3F)cc12 [Example 215, (R)-4′-((5-((1-(3,5-difluoropyridin-4-yl)ethyl)carbamoyl)-2,3-dimethyl-1H-indol-1-yl)methyl)-[1,1′-biphenyl]-2-carboxylic acid] |  |  | 309 | 
